From ChEMBL document CHEMBL1136837, “Unified QSAR approach to antimicrobials. 4. Multi-target QSAR modeling and comparative multi-distance study of the giant components of antiviral drug-drug complex networks” (Bioorg Med Chem, 2009)

Columns and labels:
[1] = test system: Human papillomavirus; experiment: Antiviral activity against Human papillomavirus; format: functional, organism-based
[2] = test system: Human rhinovirus sp.; experiment: Antiviral activity against Human rhinovirus; format: functional, organism-based
[3] = test system: Human alphaherpesvirus 1; experiment: Antiviral activity against Herpes simplex virus 1; format: functional, organism-based; conditions: Human alphaherpesvirus 1
[4] = test system: Human alphaherpesvirus 2; experiment: Antiviral activity against Herpes simplex virus 2; format: functional, organism-based; conditions: Human alphaherpesvirus 2
[5] = test system: Human immunodeficiency virus 1; experiment: Antiviral activity against HIV1; format: functional, organism-based
[6] = test system: Human immunodeficiency virus 2; experiment: Antiviral activity against HIV2; format: functional, organism-based
[7] = test system: Human betaherpesvirus 5; experiment: Antiviral activity against Human cytomegalovirus; format: functional, organism-based; conditions: Human betaherpesvirus 5
[8] = test system: Vaccinia virus; experiment: Antiviral activity against Vaccinia virus; format: functional, organism-based, Orthopoxvirus vaccinia; conditions: Orthopoxvirus vaccinia
[9] = test system: Human alphaherpesvirus 3; experiment: Antiviral activity against Varicella zoster virus; format: functional, organism-based
[10] = test system: Cowpox virus; experiment: Antiviral activity against Cowpox virus; format: functional, organism-based
[11] = test system: Hepatitis B virus; experiment: Antiviral activity against Hepatitis B virus; format: functional, organism-based

Compound: O=[N+]([O-])CS(=O)(=O)c1ccc(-c2ccccc2)cc1
- IC50 [1]: 65000 nM

Compound: O=C(O)CS(=O)(=O)c1ccc(-c2cccc(CC(=O)NCc3ccccc3)c2)cc1
- IC50 [1]: 300 nM

Compound: CCOC(=O)/C=C/[C@H](C[C@@H]1CCNC1=O)NC(=O)c1ccc2ccccc2c1
- IC50 [2]: 150 nM

Compound: O=C(NCc1cccc2ccccc12)c1cccc(-c2ccc(C(=O)C(F)(F)P(=O)(O)O)cc2)c1
- IC50 [1]: 740 nM

Compound: CCOC(=O)/C=C/[C@H](CCC(N)=O)NC(=O)[C@H](Cc1ccccc1)n1cccc(NC(=O)c2cc(Cl)on2)c1=O
- IC50 [2]: 240 nM

Compound: Cc1cccc(CNC(=O)c2cccc(-c3ccc(S(=O)(=O)CC(=O)O)cc3)c2)c1C
- IC50 [1]: 9.2 nM

Compound: Nc1nc(N)c(C2CC2)c(OCCOCP(=O)(O)O)n1
- IC50 [3]: 1.2 nM
- IC50 [4]: 1.2 nM
- IC50 [5]: 0.3 nM
- IC50 [6]: 0.3 nM
- IC50 [7]: 1.2 nM
- IC50 [8]: 1.2 nM
- IC50 [9]: 1.2 nM

Compound: CCOC(=O)/C=C/[C@H](C[C@@H]1CCNC1=O)NC(=O)/C=C/c1ccc(C)c(Br)c1
- IC50 [2]: 1290 nM

Compound: CC(C)(C)C(=O)OCOP(=O)(COCCn1cnc2c(N)ncnc21)OCOC(=O)C(C)(C)C [ADEFOVIR DIPIVOXIL]
- IC50 [10]: 13000 nM
- IC50 [8]: 5100 nM

Compound: C[C@@H](NC(=O)c1cccc(-c2ccc(S(=O)(=O)CC(=O)O)cc2)c1)c1ccccc1
- IC50 [1]: 43 nM

Compound: C[C@H](NC(=O)c1cccc(-c2ccc(S(=O)(=O)CC(=O)O)cc2)c1)c1ccccc1
- IC50 [1]: 1700 nM

Compound: Cc1cn([C@H]2C=C[C@@H](CO)O2)c(=O)[nH]c1=O [STAVUDINE]
- IC50 [10]: 446000 nM
- IC50 [8]: 446000 nM

Compound: Nc1nc(N)c(Cc2ccccc2)c(OCCOCP(=O)(O)O)n1
- IC50 [3]: 1.2 nM
- IC50 [4]: 0.66 nM
- IC50 [5]: 0.3 nM
- IC50 [6]: 0.3 nM
- IC50 [7]: 0.15 nM
- IC50 [8]: 1.2 nM
- IC50 [9]: 0.15 nM

Compound: O=C(O)CS(=O)(=O)c1ccc(NCCc2ccccc2)cc1
- IC50 [1]: 67000 nM

Compound: O=S(=O)(O)CS(=O)(=O)c1ccc(-c2ccccc2)cc1
- IC50 [1]: 32000 nM

Compound: CC(C)OP(=O)(COCCSc1cc(N)nc(N)n1)OC(C)C
- IC50 [3]: 1.1 nM
- IC50 [4]: 1.1 nM
- IC50 [6]: 0.143 nM
- IC50 [9]: 0.137 nM

Compound: O=P(O)(O)CS(=O)(=O)c1ccc(-c2ccccc2)cc1
- IC50 [1]: 30000 nM

Compound: O=C(O)CS(=O)(=O)c1ccc(-c2cccc(CC(=O)Nc3ccccc3)c2)cc1
- IC50 [1]: 110 nM

Compound: O=C(O)CS(=O)(=O)c1ccc(-c2ccc(C(=O)Nc3ccccc3)cc2)cc1
- IC50 [1]: 1300 nM

Compound: N#CCc1c(N)nc(N)n(CCOCP(=O)(O)O)c1=O
- IC50 [3]: 1.2 nM
- IC50 [4]: 1.2 nM
- IC50 [5]: 0.3 nM
- IC50 [6]: 0.3 nM
- IC50 [7]: 0.15 nM
- IC50 [8]: 1.2 nM
- IC50 [9]: 0.084 nM

Compound: O=C(O)CS(=O)(=O)c1ccc2ccccc2c1
- IC50 [1]: 40000 nM

Compound: C=CCc1c(N)nc(N)nc1OCCOCP(=O)(O)O
- IC50 [3]: 1.2 nM
- IC50 [4]: 1.2 nM
- IC50 [5]: 0.3 nM
- IC50 [6]: 0.79 nM
- IC50 [7]: 0.15 nM
- IC50 [8]: 1.2 nM
- IC50 [9]: 0.15 nM

Compound: O=S(=O)(Cc1nnn[nH]1)c1ccc(-c2ccccc2)cc1
- IC50 [1]: 63000 nM

Compound: O=C(O)CS(=O)(=O)c1ccc(Sc2ccccc2)cc1
- IC50 [1]: 80000 nM

Compound: NC1c2[nH]cnc2N=CN1C[C@@H](CO)OCP(=O)(O)O (stereo not given in full)
- IC50 [10]: 330000 nM

Compound: O=c1[nH]c(=O)n([C@@H]2O[C@H](CO)[C@@H](O)[C@@H]2F)cc1I [FIALURIDINE]
- IC50 [10]: 240 nM

Compound: CC(C)OC(=O)C(C)NP(=O)(CO[C@H](C)Cn1cnc2c(N)ncnc21)Oc1ccccc1 (stereo not given in full)
- IC50 [10]: 98900 nM

Compound: CCCCOC(=O)C[C@H](C)NP(=O)(COCCn1cnc2c(N)ncnc21)N[C@@H](C)C(=O)OCCCC (stereo not given in full)
- IC50 [10]: 10000 nM
- IC50 [8]: 4400 nM

Compound: C=CCc1c(N)nc(N)n(CCOCP(=O)(O)O)c1=O
- IC50 [3]: 1.2 nM
- IC50 [4]: 0.77 nM
- IC50 [5]: 0.3 nM
- IC50 [6]: 0.3 nM
- IC50 [8]: 1.2 nM
- IC50 [9]: 0.15 nM

Compound: Cc1ccccc1CNC(=O)c1cccc(-c2ccc(S(=O)(=O)CC(=O)O)cc2)c1
- IC50 [1]: 32 nM

Compound: O=C(O)CSc1ccc(-c2ccccc2)cc1
- IC50 [1]: 80000 nM

Compound: C[C@H](Cn1cnc2c(N)ncnc21)OCP(=O)(O)O [TENOFOVIR ANHYDROUS]
- IC50 [10]: 300000 nM
- IC50 [5]: 7200 nM
- IC50 [8]: 300000 nM

Compound: CN(C)c1nc(N)nc2c1ncn2CCOCP(=O)(O)O
- IC50 [10]: 53000 nM
- IC50 [8]: 35000 nM

Compound: O=c1[nH]cnc2c1ncn2[C@H]1CC[C@@H](CO)O1 [DIDANOSINE]
- IC50 [10]: 423000 nM
- IC50 [5]: 4000 nM
- IC50 [8]: 423000 nM

Compound: COc1c(C)c2c(c(O)c1C/C=C(\C)CCC(=O)O)C(=O)OC2 [MYCOPHENOLIC ACID]
- IC50 [10]: 3200 nM

Compound: O=C(O)CS(=O)(=O)c1ccc(-c2ccc(CC(=O)NCc3ccccc3)cc2)cc1
- IC50 [1]: 340 nM

Compound: Nc1ncnc2c1ncn2/C=C1\CC1(F)CO (stereo not given)
- IC50 [11]: 15000 nM
- IC50 [9]: 83400 nM

Compound: Nc1nc(N)n(CCOCP(=O)(O)O)c(=O)c1-c1ccccc1
- IC50 [3]: 1.2 nM
- IC50 [4]: 1.2 nM
- IC50 [5]: 0.3 nM
- IC50 [6]: 0.3 nM
- IC50 [7]: 0.15 nM
- IC50 [8]: 1.2 nM
- IC50 [9]: 0.15 nM
